Laboratory results from US20230158022A1, “METHODS OF USING MYT1 INHIBITORS” (Repare Therapeutics Inc., priority 2020, published 2023).

How the values were obtained:
[1] = test system: RPE1-hTERT Cas9 TP53−/− parental (WT) and CCNE1-overexpressing clones; test: Dose-response proliferation assay (IncuCyte confluency), RPE1-hTERT parental vs CCNE1-overexpressing clones; format: cell-based; details: dose titration, FIG. 3C
Method: For dose-response proliferation assays using RPE1-hTERT and FT282-hTERT cell lines, cells were seeded in 96-well plates and dosed with serially diluted Myt1 inhibitor. Cells were imaged once per day using the IncuCyte S3 microscope and percent well confluency was calculated over time. Once cells reached four population doublings the experiment was ended and IC50 curves were plotted for the final time point. Percentage confluency was calculated relative to the cell confluency in the untreated wells.

[2] = molecular target: T1, recombinant human Myt1 (full length PKMYT1) (Homo sapiens, UniProt Q99640); test: Myt1 enzymatic assay (ADP-Glo kinase assay, ATP hydrolysis)
T1 sequence (Q99640 1-499): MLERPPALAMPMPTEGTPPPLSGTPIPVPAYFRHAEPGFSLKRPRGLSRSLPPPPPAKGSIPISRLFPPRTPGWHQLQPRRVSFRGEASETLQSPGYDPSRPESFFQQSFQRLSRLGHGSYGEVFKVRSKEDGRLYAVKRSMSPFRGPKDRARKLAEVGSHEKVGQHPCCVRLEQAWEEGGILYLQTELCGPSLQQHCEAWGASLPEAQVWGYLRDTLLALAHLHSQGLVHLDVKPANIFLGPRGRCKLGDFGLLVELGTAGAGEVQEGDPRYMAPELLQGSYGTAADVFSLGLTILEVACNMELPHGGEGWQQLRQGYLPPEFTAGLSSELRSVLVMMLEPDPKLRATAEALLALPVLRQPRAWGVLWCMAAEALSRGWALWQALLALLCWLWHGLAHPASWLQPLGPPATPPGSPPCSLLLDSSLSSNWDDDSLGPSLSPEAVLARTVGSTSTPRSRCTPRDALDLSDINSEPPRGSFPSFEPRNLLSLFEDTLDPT
Method: Detection of Myt1 kinase activity utilized a recombinant human Myt1 kinase assay measuring the hydrolysis of ATP using a commercially available ADP-Glo Assay (ADP-Glo™ Kinase Assay from Promega, 10 000 assays, #V9102). […] After this, 5 μL of compounds (diluted in reaction buffer to 0.5% DMSO) was added to the microplate and the plate was spun briefly and incubated at 22° C. for 15 minutes. […] Luminescence was read using the Envision (250 ms integration). The IC50 and the % max inhibition were calculated for each inhibitor compound tested.

| IC50 [2] | SMILES | sensitivity (cell viability) of CCNE1-overexpressing cells compared with corresponding WT cells [1] |
| --- | --- | --- |
| – | Cc1ccc(O)c(C)c1-n1c(N)c(C(N)=O)c2cc(Cl)cnc21 (single isomer, unassigned) [Compound 133, S-2-amino-5-chloro-1-(3-hydroxy-2,6-dimethyl-phenyl)pyrrolo[2,3-b]pyridine-3-carboxamide] | more sensitive |
| 922 nM | Cc1ccc(O)cc1-n1c(N)c(C(N)=O)c2nc(Cl)ccc21 [Compound 4] | – |
